The text below walks through data of US20220073521A1, “PYRIMIDINE AND FIVE-MEMBERED NITROGEN HETEROCYCLE DERIVATIVE, PREPARATION METHOD THEREFOR, AND MEDICAL USES THEREOF” (Tuojie Biotech (Shanghai) Co., Ltd., priority 2018, published 2022).

Where two headings read alike, the source gives them in different places.

The target in assay [1] is T1, SHP2 wild-type phosphatase (recombinantly expressed full-length SHP2, aa 1-593) (Homo sapiens, UniProt Q06124).
T1 sequence (Q06124 1-593): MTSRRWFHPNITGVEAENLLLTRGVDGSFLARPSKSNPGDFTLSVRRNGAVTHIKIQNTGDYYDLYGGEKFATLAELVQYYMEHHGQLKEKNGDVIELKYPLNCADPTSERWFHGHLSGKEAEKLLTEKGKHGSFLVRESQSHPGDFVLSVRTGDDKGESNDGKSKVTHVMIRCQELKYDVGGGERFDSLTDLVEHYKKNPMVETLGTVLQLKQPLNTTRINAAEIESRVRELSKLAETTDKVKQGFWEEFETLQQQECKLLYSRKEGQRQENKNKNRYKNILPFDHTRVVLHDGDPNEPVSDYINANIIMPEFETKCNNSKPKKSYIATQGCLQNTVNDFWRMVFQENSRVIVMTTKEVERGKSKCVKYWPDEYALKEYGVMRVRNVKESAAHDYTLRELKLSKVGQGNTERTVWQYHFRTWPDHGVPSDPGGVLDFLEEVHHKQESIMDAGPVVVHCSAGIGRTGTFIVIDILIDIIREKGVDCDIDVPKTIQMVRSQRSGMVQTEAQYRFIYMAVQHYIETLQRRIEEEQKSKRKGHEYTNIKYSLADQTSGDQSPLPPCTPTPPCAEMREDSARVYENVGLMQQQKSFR
Kind of assay: In vitro activity on SHP2 wild-type phosphatase (DiFMUP fluorescence).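 Note: enzyme preincubated at room temperature, then DiFMUP reaction run at room temperature and halted with SDS, potency derived from a logistic curve fit.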 The settings on record: wild-type full-length SHP2, activated polypeptide IRS1 0.5 nM, DiFMUP 30 μM.
Experimental: 0.2 nM recombinantly expressed full-length SHP2 (aa 1-593), 0.5 nM activated polypeptide IRS1 with double phosphorylation sites (sequence: H2N-LN(pY)IDLDLY(dPEG8)LST(pY)ASINFQK-amide) and a series of concentrations of the test compound (final concentrations were 1 μM, 0.3 μM, 0.1 μM, 0.03 μM, 0.01 μM, 0.003 μM, 0.001 μM, 0.0003 μM, 0.0001 μM, 0.00003 μM) were added to the phosphatase reaction solution (60 mM HEPES, pH 7.5 0.005% Brij-35, 75 mM NaCl, 75 mM KCl, 1 mM EDTA, 5 mM DTT). The reaction solution was shaked (350 rpm) at room temperature for 30 minutes. The reaction substrate DiFMUP with a final concentration of 30 μM was added, and the reaction solution was reacted at room temperature for 30 minutes. The phosphatase reaction was stopped by adding 5 μL of stop solution (60 mM HEPES, pH 7.5, 0.2% SDS). Ex358 nm/Em455 fluorescence value was read on the fluorescence plate reader MD SpectraMax.
The IC50 value of the compound was calculated using the four-parameter logit method. In the following formula, x represents the logarithmic form of the compound concentration, and F(x) represents the effect value (the inhibition rate of cell proliferation under the given concentration condition): F(x)=((A−D)/(1+((x/C)^B)))+D. A, B, C and D are four parameters. Different concentrations correspond to different inhibition rates, based on which an inverse curve was plotted, and the IC50 of the inhibitor was calculated from the curve. The IC50 of the compound was calculated with Primer premier 6.0.

In assay [2] the test system is p-ERK in KYSE-520 cells. Kind of assay: Determination of p-ERK in KYSE-520 cells (HTRF). It is filed as cell-based. As for the experimental part: KYSE-520 cells (Nanjing Cobioer Biosciences CO., Ltd.) in the logarithmic growth phase were inoculated (30,000 cells/well) in 1640 medium containing 10% of FBS, and adhered in a 96-well plate overnight (5% CO2, 37° C.). […] The cell culture was stopped with cell lysate. The level of phosphorylated ERK in KYSE-520 cells was determined by a method based on homogeneous time-resolved fluorescence HTRF (Cisbio, 64ERKPEG). The fluorescence values (Ex337 nm/Em625/665 nm) were read on the compatible HTRF reader (MD SpectraMax).
For orientation: Time-resolved FRET reads energy transfer from a long-lived donor to a nearby acceptor.

The test system of assay [3] is KYSE-520 cells. Kind of assay: KYSE-520 cell proliferation experiment (CellTiter-Glo, 7 days). It is filed as cell-based. The protocol:
The treated cell plate was incubated at 37° C., 5% CO2 for 7 days. CellTiter-Glo (Promega, G7573) was used to determine the number of viable cells in each well of the treated plate. 100 μL of the detection reagent was added to each well, and the plate was incubated at room temperature for 10 minutes. Then, the […] in each well was measured with Envision plate reader (PerkinElmer). […] The IC50 value was further calculated as the compound concentration required for 50% proliferation inhibition in the best-fit curve with […].

As for `CNc1ncccc1Sc1cnc(N2CCC3(CC2)Cc2ncccc2[C@H]3N)n2ccnc12` [Example 38, (S)-1′-(8-((2-(Methylamino)pyridin-3-yl)thio)imidazo[1,2-c]pyrimidin-5-yl)-5,7-dihydrospiro[cyclopenta[b]pyridine-6,4′-piperidin]-5-amine], in assay [1], the IC50 worked out at 10.9 nM.

Turning to `COc1nccc(-c2c(C)nc(N3CCC4(CCC[C@H]4N)CC3)n3ccnc23)c1Cl` [Example 6, (R)-8-(8-(3-Chloro-2-methoxypyridin-4-yl)-7-methylimidazo[1,2-c]pyrimidin-5-yl)-8-azaspiro[4.5]decan-1-amine], in assay [1], the IC50 came out at 26.9 nM.

For `C[C@@H]1OCC2(CCN(c3nc(N)c(Sc4ccnc(F)c4Cl)c4nccn34)CC2)[C@@H]1N` [Example 26, (3S,4S)-8-(7-Amino-8-((3-chloro-2-fluoropyridin-4-yl)thio)imidazo[1,2-c]pyrimidin-5-yl)-3-methyl-2-oxa-8-azaspiro[4.5]decan-4-amine], the IC50 in assay [2] (Homo sapiens, KYSE-520, 2 h) came out at 11.6 nM; in assay [3] (Homo sapiens), 62 nM; in assay [1], 2.7 nM.

For the compound `Cc1nccc(Sc2c(N)nc(N3CCC4(CC3)CO[C@@H](C)[C@H]4N)n3ccnc23)c1Cl` [Example 25, (3S,4S)-8-(7-Amino-8-((3-chloro-2-methylpyridin-4-yl)thio)imidazo[1,2-c]pyrimidin-5-yl)-3-methyl-2-oxa-8-azaspiro[4.5]decan-4-amine], the IC50 in assay [2] (Homo sapiens, KYSE-520, 2 h) was found to be 29.1 nM; in assay [1], 5.2 nM.

For `N[C@@H]1c2cccnc2CC12CCN(c1ncc(Sc3ccnc(N4CCOCC4)c3Cl)c3nccn13)CC2` [Example 40, (S)-1′-(8-((3-Chloro-2-morpholinopyridin-4-yl)thio)imidazo[1,2-c]pyrimidin-5-yl)-5,7-dihydrospiro[cyclopenta[b]pyridine-6,4′-piperidin]-5-amine], the IC50 is 6.5 nM in assay [2] (Homo sapiens, KYSE-520, 2 h); 27.3 nM in assay [3] (Homo sapiens); 1.4 nM in assay [1].

In the case of `CC1(N)CCN(c2ncc(Sc3ccnc(F)c3Cl)c3nncn23)CC1` [Example 19, 1-(8-((3-Chloro-2-fluoropyridin-4-yl)thio)-[1,2,4]triazolo[4,3-c]pyrimidin-5-yl)-4-methylpiperidin-4-amine], in assay [1], the IC50 came to 555 nM.

For `COc1nccc(Sc2cnc(N3CCC4(CC3)Cc3ncccc3[C@H]4N)n3ccnc23)c1Cl` [Example 35, (S)-1′-(8-((3-Chloro-2-methoxypyridin-4-yl)thio)imidazo[1,2-c]pyrimidin-5-yl)-5,7-dihydrospiro[cyclopenta[b]pyridine-6,4′-piperidin]-5-amine], the IC50 in assay [1] is 1.5 nM.

As for `Nc1nccc(Sc2cnc(N3CCC4(CC3)Cc3ncccc3[C@H]4N)n3ccnc23)c1Cl` [Example 27, (S)-1′-(8-((2-Amino-3-chloropyridin-4-yl)thio)imidazo[1,2-c]pyrimidin-5-yl)-5,7-dihydrospiro[cyclopenta[b]pyridine-6,4′-piperidin]-5-amine], the concentration for half-maximal inhibition (IC50) in assay [2] (Homo sapiens, KYSE-520, 2 h) is 8 nM; in assay [3] (Homo sapiens), 31.5 nM; in assay [1], 1.7 nM.

`CC1(N)CCN(c2ncc(Sc3ccnc(F)c3Cl)c3nccn23)CC1` [Example 14, 1-(8-((3-Chloro-2-fluoropyridin-4-yl)thio)imidazo[1,2-c]pyrimidin-5-yl)-4-methylpiperidin-4-amine]: the IC50 in assay [1] was 232 nM.

Regarding `Cc1nc(N2CCC3(CC2)CO[C@@H](C)[C@H]3N)n2ccnc2c1-c1c(F)cccc1Cl` [Example 10, (3S,4S)-8-(8-(2-Chloro-6-fluorophenyl)-7-methylimidazo[1,2-c]pyrimidin-5-yl)-3-methyl-2-oxa-8-azaspiro[4.5]decan-4-amine], in assay [1], the IC50 came to 111 nM.

For `Cc1nc(N2CCC3(CC2)CO[C@@H](C)[C@H]3N)n2ccnc2c1-c1cccc(Cl)c1Br` [Example 12, (3S,4S)-8-(8-(2-Bromo-3-chlorophenyl)-7-methylimidazo[1,2-c]pyrimidin-5-yl)-3-methyl-2-oxa-8-azaspiro[4.5]decan-4-amine], the IC50 came out at 59.2 nM in assay [2] (Homo sapiens, KYSE-520, 2 h) and 346 nM in assay [3] (Homo sapiens).

Turning to `N[C@@H]1CCCC12CCN(c1ncc(Sc3ccnc(F)c3Cl)c3nccn13)CC2` [Example 15, (R)-8-(8-((3-Chloro-2-fluoropyridin-4-yl)thio)imidazo[1,2-c]pyrimidin-5-yl)-8-azaspiro[4.5]decan-1-amine], the IC50 in assay [2] (Homo sapiens, KYSE-520, 2 h) is 197 nM; in assay [3] (Homo sapiens) it was 312 nM; in assay [1], 5.6 nM.

Regarding `Cc1nc(N2CCC3(CCC[C@H]3N)CC2)n2ccnc2c1-c1ccc(OC(F)F)cc1Cl` [Example 7, (R)-8-(8-(2-Chloro-4-(difluoromethoxy)phenyl)-7-methylimidazo[1,2-c]pyrimidin-5-yl)-8-azaspiro[4.5]decan-1-amine], in assay [1], the concentration for half-maximal inhibition (IC50) was found to be 42.2 nM.

Turning to `Cc1nc(N2CCC3(CC2)CO[C@@H](C)[C@H]3N)n2ccnc2c1-c1cccc(Cl)c1Cl` (single isomer, unassigned) [The atropisomer with a RT of 2.716 minutes in Examples 3 and 4], the 50% inhibitory concentration (IC50) in assay [1] stood at 61.7 nM.

With `Cc1nc(N2CCC3(CCC[C@H]3N)CC2)n2ccnc2c1-c1ccnc(Cl)c1Cl` [Example 5, (R)-8-(8-(2,3-Dichloropyridin-4-yl)-7-methylimidazo[1,2-c]pyrimidin-5-yl)-8-azaspiro[4.5]decan-1-amine], the IC50 in assay [1] turned out to be 2.9 nM.

Regarding `CC1(O)CN(c2nccc(Sc3cnc(N4CCC5(CC4)Cc4ncccc4[C@H]5N)n4ccnc34)c2Cl)C1` [Example 39, (S)-1-(4-((5-(5-Amino-5,7-dihydrospiro[cyclopenta[b]pyridine-6,4′-piperidin]-1′-yl)imidazo[1,2-c]pyrimidin-8-yl)thio)-3-chloropyridin-2-yl)-3-methylazetidin-3-ol], the IC50 was 10.3 nM in assay [2] (2 hours); 7.9 nM in assay [2] (Homo sapiens, KYSE-520, 2 h); 24.1 nM in assay [3] (Homo sapiens); 1 nM in assay [1].

Take `Cc1nc(N2CCC3(CC2)Cc2ccccc2[C@H]3N)n2ccnc2c1-c1cccc(Cl)c1Cl` [Example 8, (S)-1′-(8-(2,3-Dichlorophenyl)-7-methylimidazo[1,2-c]pyrimidin-5-yl)-1,3-dihydrospiro[indene-2,4′-piperidin]-1-amine]: the IC50 in assay [2] (Homo sapiens, KYSE-520, 2 h) worked out at 370 nM; in assay [3] (Homo sapiens) it was 151 nM; in assay [1], 5 nM.

Turning to `C[C@@H]1OCC2(CCN(c3ncc(Sc4ccncc4C(F)(F)F)c4nccn34)CC2)[C@@H]1N` [Example 18, (3S,4S)-3-Methyl-8-(8-((3-(trifluoromethyl)pyridin-4-yl)thio)imidazo[1,2-c]pyrimidin-5-yl)-2-oxa-8-azaspiro[4.5]decan-4-amine], in assay [1], the IC50 amounted to 8.6 nM.

In the case of `Cc1nc(N2CCC3(CC2)CO[C@@H](C)[C@H]3N)c(CO)nc1-c1cccc(Cl)c1Cl` [RMC4550, reference compound], the IC50 in assay [2] (2 hours) is 34.6 nM; in assay [3] it was 201 nM.

For the compound `Nc1nccc(Sc2c(N)nc(N3CCC4(CC3)Cc3ccccc3[C@H]4N)n3ccnc23)c1Cl` [Example 29, (S)-1′-(7-Amino-8-((2-amino-3-chloropyridin-4-yl)thio)imidazo[1,2-c]pyrimidin-5-yl)-1,3-dihydrospiro[indene-2,4′-piperidin]-1-amine], the IC50 in assay [3] (Homo sapiens) was 14 nM; in assay [1], 1.3 nM.

In the case of `Cc1nc(N2CCC3(CC2)CO[C@@H](C)[C@H]3N)n2ccnc2c1-c1c(F)ccc(Cl)c1Cl` [Example 11, (3S,4S)-8-(8-(2,3-Dichloro-6-fluorophenyl)-7-methylimidazo[1,2-c]pyrimidin-5-yl)-3-methyl-2-oxa-8-azaspiro[4.5]decan-4-amine], the IC50 in assay [1] was 41.1 nM.

Take `C[C@@H]1OCC2(CCN(c3nc(C(F)(F)F)c(Sc4cccnc4C(F)(F)F)c4nccn34)CC2)[C@@H]1N` [Example 13, (3S,4S)-3-Methyl-8-(7-(trifluoromethyl)-8-((2-(trifluoromethyl)pyridin-3-yl)thio)imidazo[1,2-c]pyrimidin-5-yl)-2-oxa-8-azaspiro[4.5]decan-4-amine]: in assay [1], the IC50 turned out to be 818 nM.

Consider `Cc1nc(N2CCC3(CC2)Cc2ncccc2[C@H]3N)n2ccnc2c1-c1cccc(Cl)c1Cl` [Example 33, (S)-1′-(8-(2,3-Dichlorophenyl)-7-methylimidazo[1,2-c]pyrimidin-5-yl)-5,7-dihydrospiro[cyclopenta[b]pyridine-6,4′-piperidin]-5-amine], for which the IC50 in assay [1] is 1.2 nM.

Broadly, the IC50 is the concentration that gives 50% inhibition.
